Assay results published in patent US6348445B1, “Biologically active peptides with reduced toxicity in animals and a method for preparing same” (priority 1992, dated 2002).

Columns and labels:
[1] = pharmacokinetics, single intravenous dose, plasma bioassay (E. coli zone clearing); assay type: in vivo, mice; details: 140 mg/kg i.v.
Description: A pharmacokinetics study of MSI-1324 in mice using a single dose administration was conducted. Thirty-two CD-1 male mice were injected with MSI-1324 sodium with a dose of 140 mg/kg (corrected for peptide content). Terminal blood samples were obtained from 2 to 4 mice at timepoints of 0 (prior to dosing), 5, 15, 30, 60 min, 2, 4, 6, 24, and 48 hours post-dose. Plasma concentrations were estimated by bioassay.
40 animals CD-1®BR mice (Charles River Lab) with a mean body weight of 25.6 gms at study initiation were used.
A 14 mg/mL solution of MSI-1324 was made in saline (0.9% sodium chloride injectable USP, Baxter) corrected for peptide content.
Thirty-six mice were intravenously administered a single bolus of MSI-1324 at a dose of 140 mg/kg corrected for peptide content using an injection volume of 10 mL/kg of the 14 mg/mL solution. Four mice were not injected and supplied pre-dosing blood samples. Terminal blood samples were obtained via cardiac puncture in halothane-anesthetized mice at timepoints of 0 (prior to dosing), 5, 15, 30, 60 min, 2, 4, 6, 24, and 48 hours post-dose. Two to four mice were terminally bled at each timepoint. The blood samples were centrifuged and plasma transferred into separate tubes for bioassay analysis. The bioassay used was antibacterial zone clearing (disk diffusion) on Escherichia coli lawns.

[2] = maximal tolerated dose, single intravenous administration of Compound 1324; assay type: in vivo, mice; details: for Number of Survivors on Day 0: 2 or 6.5 hrs post-administration
Description: Mice received single intravenous administrations of Compound 1324, the methane sulfonate analogue of Compound 843, and were monitored for survival for at least 4 days. There were no deaths at a dose of less than or equal to 180 mg/kg.
To determine the maximal tolerated dose (MTD) and estimate the lethal dose 50% (LD50) of Compound 1324 sodium when administered intravenously in a single-bolus in mice.
Animals: On arrival and study initiation, three groups Thirty-seven male CD-1 mice (Charles River Lab)had average body weights of 39, 28 and 28 gm, respectively.
Solution Prep: A 120 mg/ml of active Compound 1324 (active moiety corrected for) was made in saline. All concentrations from 5 mg/ml to 80 mg/ml were dilutions of the 120 mg/ml solution with saline. The highest concentration used in the intravenous administration was 20 mg/ml.
Mice were randomly assigned to one of ten groups (4 mice per group, except the highest dose group which only had one mouse). Mice were administered intravenously 10 ml/kg of either 0 (saline), 5, 6, 7, 8, 14, 16, 18, or 20 mg/ml solution for doses of […]. One mouse received 14.1 ml/kg of a 20 mg/ml solution for a dose of 282 mg/kg. Mice were monitored for survival for at least four days post-administration.

CCCCCCCC(=O)N[C@@H](CCCNCS(=O)(=O)O)C(=O)N[C@@H](CCCNCS(=O)(=O)O)C(=O)N[C@@H](CC(C)C)C(=O)N[C@@H](CC(C)C)C(=O)N[C@@H](CCCNCS(=O)(=O)O)C(=O)N[C@@H](CCCNCS(=O)(=O)O)C(=O)N[C@@H](CC(C)C)C(=O)N[C@@H](CCCNCS(=O)(=O)O)C(=O)N[C@@H](CCCNCS(=O)(=O)O)C(=O)N[C@@H](CC(C)C)C(N)=O [Compound 1324]
0: Number of Survivors on Day 2 ([2]; IV 282 mg/kg, 1 mouse) | Number of Survivors on Day 3 ([2]; IV 282 mg/kg, 1 mouse) | Number of Survivors on Day 4 ([2]; IV 282 mg/kg, 1 mouse)
approximately 600 ug/mL: peak plasma concentration ([1]; estimated by bioassay)
5 min: time of peak concentration post-dose ([1]; first sampling timepoint)
below detection limits of the assay: plasma concentration at 60 min post-dose ([1]; limit of detection approximately 150 ug/mL, listed as MSI-1324)
200 to 282 mg/kg: LD50 ([2]; mouse, in vivo, single intravenous bolus, CD-1 mice)
< 150 µg/mL: level at 1 h ([1]; male, CD-1, mouse, plasma, iv, limit of detection approximately 150 ug/mL, read-out: plasma concentration at 60 min post-dose)
Three of four: mice that survived ([2]; 200 mg/kg single intravenous)
4: Number of Survivors on Day 1 ([2]; IV 50 mg/kg, 4 mice) | Number of Survivors on Day 2 ([2]; IV 50 mg/kg, 4 mice) | Number of Survivors on Day 3 ([2]; IV 50 mg/kg, 4 mice) | Number of Survivors on Day 4 ([2]; IV 50 mg/kg, 4 mice) | Number of Survivors on Day 5 ([2]; IV 50 mg/kg, 4 mice) | Number of Survivors on Day 0 ([2]; IV 50 mg/kg, 4 mice) | Number of Survivors on Day 1 ([2]; IV 60 mg/kg, 4 mice) | Number of Survivors on Day 2 ([2]; IV 60 mg/kg, 4 mice) | Number of Survivors on Day 3 ([2]; IV 60 mg/kg, 4 mice) | Number of Survivors on Day 4 ([2]; IV 60 mg/kg, 4 mice) | Number of Survivors on Day 5 ([2]; IV 60 mg/kg, 4 mice) | Number of Survivors on Day 0 ([2]; IV 60 mg/kg, 4 mice) | Number of Survivors on Day 1 ([2]; IV 70 mg/kg, 4 mice) | Number of Survivors on Day 2 ([2]; IV 70 mg/kg, 4 mice) | Number of Survivors on Day 3 ([2]; IV 70 mg/kg, 4 mice) | Number of Survivors on Day 4 ([2]; IV 70 mg/kg, 4 mice) | Number of Survivors on Day 5 ([2]; IV 70 mg/kg, 4 mice) | Number of Survivors on Day 0 ([2]; IV 70 mg/kg, 4 mice) | Number of Survivors on Day 1 ([2]; IV 80 mg/kg, 4 mice) | Number of Survivors on Day 2 ([2]; IV 80 mg/kg, 4 mice) | Number of Survivors on Day 3 ([2]; IV 80 mg/kg, 4 mice) | Number of Survivors on Day 4 ([2]; IV 80 mg/kg, 4 mice) | Number of Survivors on Day 5 ([2]; IV 80 mg/kg, 4 mice) | Number of Survivors on Day 0 ([2]; IV 80 mg/kg, 4 mice) | Number of Survivors on Day 1 ([2]; IV 140 mg/kg, 4 mice) | Number of Survivors on Day 2 ([2]; IV 140 mg/kg, 4 mice) | Number of Survivors on Day 3 ([2]; IV 140 mg/kg, 4 mice) | Number of Survivors on Day 4 ([2]; IV 140 mg/kg, 4 mice) | Number of Survivors on Day 5 ([2]; IV 140 mg/kg, 4 mice) | Number of Survivors on Day 7 ([2]; IV 140 mg/kg, 4 mice) | Number of Survivors on Day 0 ([2]; IV 140 mg/kg, 4 mice) | Number of Survivors on Day 1 ([2]; IV 160 mg/kg, 4 mice) | Number of Survivors on Day 2 ([2]; IV 160 mg/kg, 4 mice) | Number of Survivors on Day 3 ([2]; IV 160 mg/kg, 4 mice) | Number of Survivors on Day 4 ([2]; IV 160 mg/kg, 4 mice) | Number of Survivors on Day 5 ([2]; IV 160 mg/kg, 4 mice) | Number of Survivors on Day 7 ([2]; IV 160 mg/kg, 4 mice) | Number of Survivors on Day 0 ([2]; IV 160 mg/kg, 4 mice) | Number of Survivors on Day 1 ([2]; IV 180 mg/kg, 4 mice) | Number of Survivors on Day 2 ([2]; IV 180 mg/kg, 4 mice) | Number of Survivors on Day 3 ([2]; IV 180 mg/kg, 4 mice) | Number of Survivors on Day 4 ([2]; IV 180 mg/kg, 4 mice) | Number of Survivors on Day 5 ([2]; IV 180 mg/kg, 4 mice) | Number of Survivors on Day 7 ([2]; IV 180 mg/kg, 4 mice) | Number of Survivors on Day 0 ([2]; IV 180 mg/kg, 4 mice)
3: Number of Survivors on Day 2 ([2]; IV 200 mg/kg, 4 mice) | Number of Survivors on Day 3 ([2]; IV 200 mg/kg, 4 mice) | Number of Survivors on Day 4 ([2]; IV 200 mg/kg, 4 mice)
